From ChEMBL document CHEMBL5046270, “A Selective and Orally Bioavailable Quinoline-6-Carbonitrile-Based Inhibitor of CDK8/19 Mediator Kinase with Tumor-Enriched Pharmacokinetics” (J Med Chem, 2022)
Active and inactive are the calls of the source. No cut-off for these calls is given here.

What was measured:
[1] = Cmax in tumor of BALB/c mouse xenografted with mouse CT26 cells at 2.5 mg/kg, iv by LC-MS/MS analysis; format: ADME, organism-based, Neoplasm; design: route intravenous, dose 2.5 mg/kg
[2] = Drug accumulation in liver of BALB/c mouse bearing CT26 tumor model at 100 mg/kg, po for 7 days by LC-MS/MS analysis; format: ADME, organism-based; conditions: in vivo, 168 h, time 7 day
[3] = target: T1, CDK8/Cyclin C (Homo sapiens) (UniProt P49336+P24863); assay: Binding affinity to kinase tracer 236 binding to His tagged recombinant human CDK8/cyclinC assessed as rate constant (koff) by TR FRET based assay; format: protein-complex assay
[4] = Cmax in tumor of BALB/c mouse xenografted with mouse CT26 cells at 100 mg/kg, po by LC-MS/MS analysis; format: ADME, organism-based, Neoplasm; design: route oral, dose 100 mg/kg
HEK293 = assay: Inhibition of TNFalpha induced CDK8/19 dependent NF kappa B activity CDK8/19 in double knockout HEK293 cell for 3 hrs by qt-PCR analysis; format: functional, cell-based; conditions: Homo sapiens
[5] = target: T1, CDK8/Cyclin C (Homo sapiens); assay: Binding affinity to kinase tracer 236 binding to His tagged recombinant human CDK8/cyclinC assessed as rate constant (kon) by TR FRET based assay; format: protein-complex assay
[6] = Half life in plasma of BALB/c mouse xenografted with mouse CT26 cells at 100 mg/kg, po by LC-MS/MS analysis; format: ADME, organism-based
[7] = Elimination rate constant in plasma of BALB/c mouse xenografted with mouse CT26 cells at 2.5 mg/kg, iv by LC-MS/MS analysis; format: ADME, organism-based
[8] = Downregulation of CDK8/19 in HEK293 cells assessed as mRNA expression level in MYC gene at 1 uM for 3 hrs pretreatment and measured after 24 hr post wash-off by qt-PCR analysis; format: functional; conditions: Homo sapiens, time 27 hrs
[9] = Inhibition of CDK8/CDK19 in MV4-11 cells and measured after 7 days by Spectra max iD5 microplate reader; format: cell-based, Homo sapiens
[10] = Tmax in tumor of BALB/c mouse xenografted with mouse CT26 cells at 2.5 mg/kg, iv by LC-MS/MS analysis; format: ADME, organism-based, Neoplasm
[11] = AUC(0-24h) in plasma of BALB/c mouse xenografted with mouse CT26 cells at 100 mg/kg, po by LC-MS/MS analysis; format: ADME, organism-based; design: time < 24 hr, route oral, dose 100 mg/kg; conditions: in vivo
[12] = target: T1, CDK8/Cyclin C (Homo sapiens); assay: Binding affinity to kinase tracer 236 binding to His tagged recombinant human CDK8/cyclinC assessed as mean residence time by TR FRET based assay; format: protein-complex assay
[13] = Toxicity in BALB/c mouse bearing CT26 tumor model assessed as change in body weight at 100 mg/kg, po qd for 7 days by LC-MS/MS analysis; format: organism-based; conditions: in vivo, 168 h, time 7 day
[14] = target: T2, Mitogen-activated protein kinase kinase kinase kinase 2 (Homo sapiens) (UniProt Q12851); assay: Inhibition of human MAP4K2 at 2 uM by competition binding assay relative to control; conditions: values are per cent of control
T2 sequence (whole entry): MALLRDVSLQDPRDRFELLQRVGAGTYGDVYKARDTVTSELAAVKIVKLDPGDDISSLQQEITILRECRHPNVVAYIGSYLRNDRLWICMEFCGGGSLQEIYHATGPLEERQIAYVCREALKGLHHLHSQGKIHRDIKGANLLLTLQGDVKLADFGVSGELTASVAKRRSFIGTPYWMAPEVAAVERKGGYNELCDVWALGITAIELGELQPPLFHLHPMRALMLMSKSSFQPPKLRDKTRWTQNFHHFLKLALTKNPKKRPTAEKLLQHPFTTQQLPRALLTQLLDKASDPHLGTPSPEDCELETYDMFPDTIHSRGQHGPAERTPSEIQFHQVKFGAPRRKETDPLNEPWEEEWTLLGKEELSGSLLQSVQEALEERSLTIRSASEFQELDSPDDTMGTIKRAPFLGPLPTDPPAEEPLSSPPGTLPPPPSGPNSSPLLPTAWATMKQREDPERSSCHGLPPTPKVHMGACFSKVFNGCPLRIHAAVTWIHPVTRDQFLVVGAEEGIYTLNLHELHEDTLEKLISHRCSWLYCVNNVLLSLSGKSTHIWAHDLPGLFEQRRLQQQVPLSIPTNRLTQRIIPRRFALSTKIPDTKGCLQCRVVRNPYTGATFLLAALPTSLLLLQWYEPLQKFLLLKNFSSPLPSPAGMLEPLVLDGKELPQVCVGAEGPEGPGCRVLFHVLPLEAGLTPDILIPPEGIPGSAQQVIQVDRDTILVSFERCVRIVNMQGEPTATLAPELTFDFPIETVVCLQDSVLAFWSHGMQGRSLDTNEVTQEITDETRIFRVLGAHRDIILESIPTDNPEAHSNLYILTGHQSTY

[15] = target: Cyclin-dependent kinase 8 (Homo sapiens) (UniProt P49336); assay: Inhibition of human CDK8 at 2 uM by competition binding assay relative to control; values are per cent of control
[16] = target: T3, Cyclin-C/Cyclin-dependent kinase 19 (Homo sapiens) (UniProt Q9BWU1+P24863); assay: Binding affinity to recombinant human CDK19/cyclinC assessed as rate constant (kon) by TR FRET based assay; format: protein-complex assay
[17] = target: T1, CDK8/Cyclin C (Homo sapiens); assay: Binding affinity to kinase tracer 236 binding to His tagged recombinant human CDK8/cyclinC assessed as half life by TR FRET based assay; format: protein-complex assay
[18] = AUC (0-24hrs) in tumor of BALB/c mouse xenografted with mouse CT26 cells at 2.5 mg/kg, iv by LC-MS/MS analysis; format: ADME, organism-based, Neoplasm; design: time < 24 hr, route intravenous, dose 2.5 mg/kg
CDK8/Cyclin C = CDK8/Cyclin C (Homo sapiens, UniProt P49336); assay: Inhibition of kinase tracer 236 binding to His tagged recombinant human CDK8/cyclin C incubated for 60 min FRET based LanthaScreen Eu-Kinase binding assay; format: protein-complex assay
[19] = Elimination rate constant in tumor of BALB/c mouse xenografted with mouse CT26 cells at 2.5 mg/kg, iv by LC-MS/MS analysis; format: ADME, organism-based, Neoplasm
[20] = Tmax in tumor of BALB/c mouse xenografted with mouse CT26 cells at 100 mg/kg, po by LC-MS/MS analysis; format: ADME, organism-based, Neoplasm
[21] = Downregulation of CDK8/19 in HEK293 cells assessed as mRNA expression level in KCTD12 gene at 1 uM for 3 hrs pretreatment and measured after 24 hr post wash-off by qt-PCR analysis; format: functional; conditions: Homo sapiens, time 27 hrs
[22] = target: Cyclin-C/Cyclin-dependent kinase 19 (Homo sapiens, UniProt Q9BWU1); assay: Binding affinity to recombinant human CDK19/cyclinC assessed as dissociation constant by TR FRET based assay; format: protein-complex assay
[23] = target: T3, Cyclin-C/Cyclin-dependent kinase 19 (Homo sapiens); assay: Binding affinity to recombinant human CDK19/cyclinC assessed as rate constant (koff) by TR FRET based assay; format: protein-complex assay

CDK8/Cyclin C, sequence (P49336 whole entry): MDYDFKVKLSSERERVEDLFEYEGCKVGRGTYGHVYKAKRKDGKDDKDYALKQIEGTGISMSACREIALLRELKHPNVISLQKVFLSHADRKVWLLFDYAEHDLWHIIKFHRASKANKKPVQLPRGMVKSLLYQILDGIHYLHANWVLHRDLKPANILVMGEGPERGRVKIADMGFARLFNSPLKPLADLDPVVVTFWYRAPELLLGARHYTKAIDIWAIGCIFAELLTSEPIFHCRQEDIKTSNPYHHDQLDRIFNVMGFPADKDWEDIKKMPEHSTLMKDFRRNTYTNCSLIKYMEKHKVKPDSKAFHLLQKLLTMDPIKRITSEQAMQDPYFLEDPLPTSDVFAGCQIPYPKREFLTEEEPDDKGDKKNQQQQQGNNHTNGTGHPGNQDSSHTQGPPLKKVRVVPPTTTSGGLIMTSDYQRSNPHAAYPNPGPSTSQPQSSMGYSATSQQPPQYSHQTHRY
CDK8/Cyclin C, sequence (P24863 whole entry, further chain): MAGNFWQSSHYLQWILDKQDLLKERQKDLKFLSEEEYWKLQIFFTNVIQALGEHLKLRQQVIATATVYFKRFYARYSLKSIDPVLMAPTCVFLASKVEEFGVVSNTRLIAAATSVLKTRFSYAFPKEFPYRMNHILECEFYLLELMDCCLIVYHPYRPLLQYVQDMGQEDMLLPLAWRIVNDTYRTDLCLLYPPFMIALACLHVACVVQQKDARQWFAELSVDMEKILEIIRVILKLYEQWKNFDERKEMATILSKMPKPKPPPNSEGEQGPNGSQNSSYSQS
Cyclin-dependent kinase 8 (Homo sapiens), sequence (P49336 whole entry): as the sequence (P49336 whole entry) above
Cyclin-C/Cyclin-dependent kinase 19, sequence (Q9BWU1 whole entry): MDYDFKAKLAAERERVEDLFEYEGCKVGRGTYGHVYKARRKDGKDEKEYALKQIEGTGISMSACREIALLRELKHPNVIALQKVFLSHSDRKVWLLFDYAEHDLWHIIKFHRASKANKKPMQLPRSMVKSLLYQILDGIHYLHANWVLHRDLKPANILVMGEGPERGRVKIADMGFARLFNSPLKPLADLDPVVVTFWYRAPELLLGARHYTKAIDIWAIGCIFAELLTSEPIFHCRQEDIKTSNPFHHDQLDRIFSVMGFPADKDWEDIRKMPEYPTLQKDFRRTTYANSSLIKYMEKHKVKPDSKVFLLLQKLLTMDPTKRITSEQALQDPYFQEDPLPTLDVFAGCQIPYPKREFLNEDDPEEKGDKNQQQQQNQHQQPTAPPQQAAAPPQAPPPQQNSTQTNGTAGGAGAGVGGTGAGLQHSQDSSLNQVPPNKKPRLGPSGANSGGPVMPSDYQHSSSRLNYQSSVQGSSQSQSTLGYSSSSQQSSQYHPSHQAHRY
Cyclin-C/Cyclin-dependent kinase 19, sequence (P24863 whole entry, further chain): as the sequence (P24863 whole entry, further chain) above

CN1CCN(C(=O)c2ccc3cc(CCNc4ccnc5ccc(C#N)cc45)ccc3c2)CC1
Cmax [1]: 488 ng/mL | Drug uptake [2]: Active | K [3]: 0.00122 s⁻¹ | Cmax [4]: 5730 ng/mL | Activity (HEK293): inactive | K [5]: 8.78 10^6/M/s | half-life [6]: 212 min | k el [7]: 0.000258 s⁻¹ | inhibition at 1 µM [8]: 30% | IC50 [9]: 108 nM | Tmax [10]: 34.8 min | AUC [11]: 2182 ng·h/mL | MRT [12]: 13.6 min | Activity [13]: Non-Toxic | residual binding, % of control [14]: 29% | residual activity [15]: 1% | K [16]: 9.39 10^6/M/s | T1/2 [17]: 9.45 min | AUC(0-t) at 24 h [18]: 6410 ng·h/mL | IC50 (CDK8/Cyclin C): 3.6 nM | k el [19]: 1.67e-05 s⁻¹ | Tmax [20]: 720 min | inhibition at 1 µM [21]: 30% | Kd [22]: 2.9 nM | K [23]: 0.00272 s⁻¹
